Results as given in PubChem BioAssay (NCI).
“And” between values parts separate entries of the source, which are not always exact repeats. Equal entries are not always repeated.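 Results reflect a 48-hour exposure of cells in 96-well plates to compound at five concentrations. GI50 is the concentration that inhibits growth by half. Definition used: TGI = concentration required for complete inhibition of growth.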

Legend:
Assay in all cases: NCI tumour cell line growth inhibition, 48 h
[1] = system: BT-549 breast
[2] = system: EKVX NSCLC
[3] = system: M14 melanoma
[4] = system: MDA-MB-231 breast
[5] = system: NCI-H460 lung
[6] = system: SN12C renal
[7] = system: SR leukemia
[8] = system: SK-MEL-2 melanoma
[9] = system: SK-OV-3 ovarian
[10] = system: TK-10 renal

SMILES | TGI [1] | TGI [2] | TGI [3] | TGI [4] | TGI [5] | TGI [6] | TGI [7] | GI50 [2] | TGI [8] | TGI [9] | TGI [10] | GI50 [4] | GI50 [5] | GI50 [8] | GI50 [9] | GI50 [6] | GI50 [7] | GI50 [10] | GI50 [1] | GI50 [3]
Cc1cc2c(C)cc(=O)[nH]c2cc1N | > 100 µM | > 100 µM | > 100 µM | > 100 µM | > 100 µM | > 100 µM | > 100 µM |  |  |  |  |  |  |  |  |  |  |  |  | 
CSC1CC2C(CC1(C)O)C2(C)C (stereo not drawn) |  | 92.1 µM and > 100 µM | > 100 µM |  | > 100 µM | > 100 µM |  | 13.3 µM and > 100 µM | > 100 µM | > 100 µM | > 100 µM |  |  |  |  |  |  |  |  | 
COc1ccc(Nc2nc3ccc(C(F)(F)F)cc3nc2C(=O)O)cc1OC | 71.5 µM | > 100 µM |  | > 100 µM | 54.6 µM | > 100 µM | 58 µM |  | 35.5 µM |  |  |  |  |  |  |  |  |  |  | 
CCC12C[N+]3([O-])CCc4c([nH]c5ccccc45)C(C(=O)OC)(c4cc5c(cc4OC)N(C)C4C(O)(C(=O)OC)C(OC(C)=O)C6(CC)C=CCN7CCC54C76)CC(C3)C1O2 (stereo not drawn) |  | 18 µM | 17.8 µM |  | 43.5 µM | 24.5 µM |  |  | 0.649 µM | 7.34 µM | 26.8 µM |  |  |  |  |  |  |  |  | 
OC[C@@H](O)[C@H]1NC[C@@H](O)[C@H]1O | > 100 µM | > 100 µM | > 100 µM |  | > 100 µM | > 100 µM | > 100 µM |  |  | > 100 µM | > 100 µM |  |  |  |  |  |  |  |  | 
O=[N+]([O-])C(=C(N1CCCCC1)N1CCCCC1)/C(Cl)=C(\Cl)Br | > 100 µM | 37.1 µM | 59.1 µM | 70.6 µM | > 100 µM | > 100 µM | 30.9 µM |  |  | > 100 µM | 72 µM |  |  |  |  |  |  |  |  | 
COc1ccc(/C(=N/O)c2ccccc2-c2nc3ccccc3c(=O)n2-c2ccc(S(=O)(=O)Nc3ncccn3)cc2)cc1C | 31.3 µM | > 31.6 µM | > 31.6 µM | > 31.6 µM | > 31.6 µM | > 31.6 µM | 31 µM |  |  | 20.8 µM | > 31.6 µM |  |  |  |  |  |  |  |  | 
CCOC(=O)c1[nH]cc(C)c1-c1ccn(-c2ccccc2)c1 | > 100 µM | > 100 µM | > 100 µM |  | > 100 µM | > 100 µM | 72.4 µM |  | > 100 µM | > 100 µM | > 100 µM |  |  |  |  |  |  |  |  | 
CC(C)(C)C1=Cc2cc3cc(C(C)(C)C)[nH]c(=O)c3cc2S(=O)(=O)N1 |  | 44.1 µM | 29.7 µM |  | > 100 µM | > 100 µM | 61.5 µM |  | 38.2 µM | > 100 µM | 88.3 µM |  |  |  |  |  |  |  |  | 
CCC1=CCC23C(=O)C=CC(=O)C2(C1)C(=O)c1cccc(OC)c1C3=O (stereo not drawn) |  | 32.9 µM | 30.4 µM | 29.8 µM | 62.5 µM | 35.2 µM | 41.4 µM |  | > 100 µM |  | 33.5 µM |  |  |  |  |  |  |  |  | 
COC(=O)c1c(C)cccc1/C=C1/Cc2c(C)cccc2C1=O | > 100 µM | > 100 µM |  | > 100 µM | > 100 µM | > 100 µM |  |  |  | > 100 µM | > 100 µM |  |  |  |  |  |  |  |  | 
CC(CC(C#N)(c1ccccc1)c1ccccc1)N1CCCCC1 (stereo not drawn) | > 100 µM | 56.3 µM | 39.1 µM | 63.8 µM | 31.7 µM | 74.5 µM |  |  | 46.4 µM | > 100 µM | 46.5 µM |  |  |  |  |  |  |  |  | 
c1ccc2c(c1)[nH]c1nc3cc(-c4ccc5nc6c(nc5c4)[nH]c4ccccc46)ccc3nc12 | > 100 µM | > 100 µM | > 100 µM | 97 µM | > 100 µM | > 100 µM |  |  | > 100 µM | > 100 µM | > 100 µM |  |  |  |  |  |  |  |  | 
CCN(CC)CCNc1ccc2nnn3c4ccc(OC)cc4c(=O)c1c23 |  |  | 23.5 µM |  | 13.3 µM | 19.9 µM | 7.21 µM |  | 27.4 µM | 34.6 µM | 23.9 µM |  |  |  |  |  |  |  |  | 
O=C1/C(=C/c2ccccc2S)N=C(c2ccccc2)N1c1nc2ccc(Sc3ccccc3)cc2[nH]1 | 61.1 µM | > 100 µM | 49 µM | 71.6 µM | 57 µM | 99.1 µM |  |  | 36.2 µM | > 100 µM | 70.3 µM |  |  |  |  |  |  |  |  | 
CCC(C(=O)O)c1ccc(OCc2ccccc2)cc1 (stereo not drawn) |  | > 100 µM | > 100 µM |  | > 100 µM | > 100 µM | > 100 µM |  | > 100 µM | > 100 µM | > 100 µM |  |  |  |  |  |  |  |  | 
O=C1NCCCc2nonc21 |  | > 100 µM | > 100 µM | > 100 µM | > 100 µM | > 100 µM | > 100 µM |  | > 100 µM | > 100 µM | > 100 µM |  |  |  |  |  |  |  |  | 

SMILES | TGI [1] | TGI [2] | TGI [3] | TGI [4] | TGI [5] | TGI [6] | TGI [7] | GI50 [2] | TGI [8] | TGI [9] | TGI [10] | GI50 [4] | GI50 [5] | GI50 [8] | GI50 [9] | GI50 [6] | GI50 [7] | GI50 [10] | GI50 [1] | GI50 [3]
Oc1ccc(-c2nnc3sc(-c4ccc(F)cc4)nn23)cc1 |  | > 100 µM |  | 46.8 µM | > 100 µM | > 100 µM | > 100 µM | 70.8 µM | > 100 µM | > 100 µM | > 100 µM | 10.6 µM | > 100 µM | > 100 µM | 34.9 µM | 42.5 µM | 15.1 µM | 69.8 µM |  | 
NC(=O)C(=O)N/N=C1/c2ccccc2CC1C1(O)C(=O)Nc2c(Cl)cc(Cl)cc21 (stereo not drawn) |  | > 100 µM |  |  | > 100 µM | > 100 µM | > 100 µM |  | > 100 µM | > 100 µM | > 100 µM |  |  |  |  |  |  |  |  | 
COc1cc(OCc2ccc3oc(=O)c(-c4ccccc4)nc3c2)cc(OC)c1OC | > 100 µM |  | > 100 µM | > 100 µM | > 100 µM | > 100 µM | > 100 µM |  | > 100 µM | > 100 µM | > 100 µM |  |  |  |  |  |  |  |  | 
C=C1C(O)C2(O)OCC34C(CC5C(C)=CC(=O)C(O)C5(C)C23)OC(=O)C(OC(=O)C/C=C(\C)CCCCC)C14 (stereo not drawn) |  |  | 0.00141 µM | 0.0218 µM and 0.162 µM |  |  |  | 0.0479 µM | 0.00985 µM and 0.042 µM |  | 0.0119 µM and 0.0865 µM | 0.0302 µM | < 0.001 µM | 0.00113 µM |  | 0.00157 µM |  | 0.0239 µM |  | 
COc1cc(/C=C/C(=O)O)ccc1C(=O)O/C=C/c1ccccc1 |  | > 100 µM |  |  | > 100 µM | > 100 µM |  |  | > 100 µM | > 100 µM |  |  |  |  |  |  |  |  |  | 
CCCCN1CCN(c2ccc3nc(-c4ccc5nc(-c6ccc(C(F)(F)F)cc6)[nH]c5c4)[nH]c3c2)CC1 | 3.1 µM | 3.07 µM | 2.8 µM | 2.94 µM | 1.33 µM | 3.21 µM |  | 1.57 µM | 3.31 µM | 3.39 µM | 3.68 µM | 1.47 µM | 0.64 µM | 1.76 µM | 1.91 µM | 1.61 µM |  | 2.21 µM | 1.61 µM | 1.34 µM
COCOc1ccc(OC)cc1 |  | > 100 µM |  |  | > 100 µM | > 100 µM |  |  | > 100 µM | > 100 µM |  |  |  |  |  |  |  |  |  | 
C/C(=C\c1ccccc1)C(=O)CCN1CCOCC1 |  | 42.7 µM |  |  | > 100 µM | 32.8 µM |  |  | > 59.9 µM | > 100 µM |  |  |  |  |  |  |  |  |  | 
Nc1nn2c(C(Br)Br)cc(C(Br)Br)nc2c1[N+](=O)[O-] | 2.09 µM | 6.45 µM | 1.81 µM | 2.95 µM | 7.5 µM |  |  |  |  | 12 µM | 2.28 µM |  |  |  |  |  |  |  |  | 
COc1cc(C2c3cc4c(cc3OC(NN=C(C)C)C2C)OCO4)cc(OC)c1O (stereo not drawn) | > 100 µM |  | > 100 µM | > 100 µM |  | > 100 µM | 16.5 µM |  | 55.9 µM |  | > 100 µM |  |  |  |  |  |  |  |  | 
O=C(NC(Cc1c[nH]c2ccccc12)C(=O)O)/C(=C/c1ccccc1O)NC(=O)c1ccccc1 (stereo not drawn) | 52.5 µM | > 100 µM | > 100 µM | 65 µM | > 100 µM | 63.9 µM | > 100 µM |  |  | 56.7 µM | > 100 µM |  |  |  |  |  |  |  |  | 
Cc1ccc(S(=O)(=O)Oc2cc(N)c3c(n2)CCC3)cc1 | > 100 µM | > 100 µM | > 100 µM | > 100 µM | > 100 µM | > 100 µM |  |  | > 100 µM | > 100 µM | > 100 µM |  |  |  |  |  |  |  |  | 
O=C1CCC(=Nc2ccc(Cl)cc2)N1C(=O)COc1ccc(OCC(=O)N2C(=O)CSC2=Nc2ccc(Cl)cc2)cc1 | > 100 µM | > 100 µM | > 100 µM | > 100 µM | > 100 µM | > 100 µM |  |  | > 100 µM | > 100 µM | > 100 µM |  |  |  |  |  |  |  |  | 
Cc1nn(C(=O)Cc2ccccc2)c2c1C(c1ccccc1O)SC(N)=N2 (stereo not drawn) | > 100 µM | > 100 µM | > 100 µM | > 100 µM | > 100 µM | > 100 µM | > 100 µM |  |  | > 100 µM | > 100 µM |  |  |  |  |  |  |  |  | 
O=C(O)C1CC(c2ccc(F)cc2)=Nc2ccc(F)cc2S1 (stereo not drawn) | > 100 µM | > 100 µM | > 100 µM | > 100 µM | > 100 µM | > 100 µM |  |  | > 100 µM | > 100 µM | > 100 µM |  |  |  |  |  |  |  |  | 
COc1ccc2c(c1)O/C(=C\c1cccc(OCC(=O)Nc3nc4c(s3)CCCC4)c1)C2=O | > 100 µM | > 100 µM | > 100 µM | > 53.9 µM | > 100 µM | > 100 µM |  | > 66.3 µM | > 30.6 µM | > 100 µM | > 100 µM | 6.58 µM | > 100 µM | 12.5 µM | > 72.6 µM | 4.78 µM |  | > 100 µM | > 51.1 µM | > 100 µM
Cc1cn2c(/C=C3/C(=O)Nc4cccc(Cl)c43)c(Cl)nc2s1 | > 100 µM | > 100 µM | > 100 µM | > 100 µM |  | > 100 µM | > 100 µM |  |  | > 100 µM | 37.4 µM |  |  |  |  |  |  |  |  | 
